Results: patent US20090239841A1, “Diaryl Ureas as CB1 Antagonists” (priority 2004, published 2009)

Target: T1, hCB1 (Homo sapiens, UniProt P21554)
T1 construct: made in house; host or cells: Sf9 insect cells (baculovirus), P2 membranes
Experiment: Agonist-induced GTP binding (GTPγ35S) assay at CB1, Example 8
Type: biochemical
Conditions: Table II; IC50 at CB1, GTP binding with 1 nM CP55,940; read-out: IC50
Procedure, shortened: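 Membranes from Sf9 cells co-expressing hCB1 and heterotrimeric G-protein (10 μg protein) in Tris pH 7.4 buffer with 5 μM GDP. Test compounds (10^−10–10^−5 M) competed against 1 nM CP55,940 with […] GTPγ35S, 60 min at room temperature. Filter-bound radioactivity by scintillation, expressed as percent above basal.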

T1 sequence (P21554 whole entry): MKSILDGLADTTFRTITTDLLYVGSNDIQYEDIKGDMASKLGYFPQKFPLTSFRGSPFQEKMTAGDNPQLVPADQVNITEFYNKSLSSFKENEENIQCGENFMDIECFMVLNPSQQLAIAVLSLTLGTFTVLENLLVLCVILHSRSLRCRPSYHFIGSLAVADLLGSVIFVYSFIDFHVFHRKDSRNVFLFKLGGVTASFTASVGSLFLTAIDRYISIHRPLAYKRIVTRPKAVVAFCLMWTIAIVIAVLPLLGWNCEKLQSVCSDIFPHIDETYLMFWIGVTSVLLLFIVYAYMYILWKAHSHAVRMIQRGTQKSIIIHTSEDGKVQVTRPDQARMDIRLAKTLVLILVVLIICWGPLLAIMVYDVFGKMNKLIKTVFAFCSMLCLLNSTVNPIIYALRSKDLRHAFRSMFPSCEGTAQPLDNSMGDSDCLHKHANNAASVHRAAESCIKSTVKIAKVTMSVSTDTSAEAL

Compound | IC50
CCc1ccc(NC(=O)Nc2ccc(C(C)C)cc2)cc1 [Compound 181, N-(4-ethylphenyl)-N′-(4-isopropylphenyl)urea] | < 2000 nM
CC(C)c1ccc(NC(=O)Nc2ccc(Cl)cc2)cc1 [Compound 182, N-(4-chlorophenyl)-N′-(4-isopropylphenyl)urea] | < 2000 nM
CCCc1ccc(NC(=O)Nc2cccc(CC)c2)cc1 [Compound 183, N-(3-ethylphenyl)-N′-(4-propylphenyl)urea] | < 2000 nM
CCCc1ccc(NC(=O)Nc2cccc(Cl)c2)cc1 [Compound 184, N-(3-chlorophenyl)-N′-(4-propylphenyl)urea] | < 2000 nM
CCCc1ccc(NC(=O)Nc2ccc(Cl)cc2)cc1 [Compound 185, N-(4-chlorophenyl)-N′-(4-propylphenyl)urea] | < 2000 nM
Cc1ccc(NC(=O)Nc2cccc(C#N)c2)cc1 [Compound 186, N-(3-cyanophenyl)-N′-(4-methylphenyl)urea] | < 2000 nM
CC(=O)c1ccc(NC(=O)Nc2ccc(C)cc2)cc1 [Compound 187, N-(4-acetylphenyl)-N′-(4-methylphenyl)urea] | < 2000 nM
CC(=O)c1ccc(NC(=O)Nc2cccc(F)c2)cc1 [Compound 188, N-(4-acetylphenyl)-N′-(3-fluorophenyl)urea] | < 2000 nM
CC(=O)c1ccc(NC(=O)Nc2ccc(F)cc2)cc1 [Compound 189, N-(4-acetylphenyl)-N′-(4-fluorophenyl)urea] | < 2000 nM
CCc1cccc(NC(=O)Nc2ccc(C(C)=O)cc2)c1 [Compound 190, N-(4-acetylphenyl)-N′-(3-ethylphenyl)urea] | < 2000 nM
CC(=O)c1ccc(NC(=O)Nc2cccc(Cl)c2)cc1 [Compound 191, N-(4-acetylphenyl)-N′-(3-chlorophenyl)urea] | < 2000 nM
CC(=O)c1ccc(NC(=O)Nc2ccc(Cl)cc2)cc1 [Compound 192, N-(4-acetylphenyl)-N′-(4-chlorophenyl)urea] | < 2000 nM
CC(C)c1ccc(NC(=O)Nc2ccc(C#N)cc2)cc1 [Compound 193, N-(4-cyanophenyl)-N′-(4-isopropylphenyl)urea] | < 2000 nM
CC(C)c1ccc(NC(=O)Nc2cccc(C#N)c2)cc1 [Compound 194, N-(3-cyanophenyl)-N′-(4-isopropylphenyl)urea] | < 2000 nM
CC(=O)c1cccc(NC(=O)Nc2ccc(C(C)C)cc2)c1 [Compound 195, N-(3-acetylphenyl)-N′-(4-isopropylphenyl)urea] | < 2000 nM
CC(=O)c1ccc(NC(=O)Nc2ccc(C(C)C)cc2)cc1 [Compound 196, N-(4-acetylphenyl)-N′-(4-isopropylphenyl)urea] | < 2000 nM
CCCc1ccc(NC(=O)Nc2ccc(C#N)cc2)cc1 [Compound 197, N-(4-cyanophenyl)-N′-(4-propylphenyl)urea] | < 2000 nM
CCCc1ccc(NC(=O)Nc2cccc(C#N)c2)cc1 [Compound 198, N-(3-cyanophenyl)-N′-(4-propylphenyl)urea] | < 2000 nM
CCCc1ccc(NC(=O)Nc2cccc(C(C)=O)c2)cc1 [Compound 199, N-(3-acetylphenyl)-N′-(4-propylphenyl)urea] | < 2000 nM
CCCc1ccc(NC(=O)Nc2ccc(C(C)=O)cc2)cc1 [Compound 200, N-(4-acetylphenyl)-N′-(4-propylphenyl)urea] | < 2000 nM

Compound | IC50
CC(=O)c1ccc(NC(=O)Nc2cccc(Br)c2)cc1 [Compound 201, N-(4-acetylpheny-)-N′-(3-bromophenyl)urea] | < 2000 nM
CCOc1cccc(NC(=O)Nc2ccc(C)cc2)c1 [Compound 202, N-(3-ethoxyphenyl)-N′-(4-methylphenyl)urea] | < 2000 nM
CCOc1cccc(NC(=O)Nc2cccc(F)c2)c1 [Compound 203, N-(3-ethoxyphenyl)-N′-(3-fluorophenyl)urea] | < 2000 nM
CCOc1cccc(NC(=O)Nc2ccc(F)cc2)c1 [Compound 204, N-(3-ethoxyphenyl)-N′-(4-fluorophenyl)urea] | < 2000 nM
CCOc1ccc(NC(=O)Nc2cccc(F)c2)cc1 [Compound 205, N-(4-ethoxyphenyl)-N′-(3-fluorophenyl)urea] | < 2000 nM
CCOc1ccc(NC(=O)Nc2ccc(F)cc2)cc1 [Compound 206, N-(4-ethoxyphenyl)-N′-(4-fluorophenyl)urea] | < 2000 nM
COCc1ccc(NC(=O)Nc2ccc(C)cc2)cc1 [Compound 207, N-[4-(methoxymethyl)phenyl]-N′-(4-methylphenyl)urea] | < 2000 nM
COCc1ccc(NC(=O)Nc2cccc(F)c2)cc1 [Compound 208, N-(3-fluorophenyl)-N′-[4-(methoxymethyl)phenyl]urea] | < 2000 nM
CCCOc1ccc(NC(=O)Nc2cccc(F)c2)cc1 [Compound 209, N-(3-fluorophenyl)-N′-(4-propoxyphenyl)urea] | < 2000 nM
CCCOc1ccc(NC(=O)Nc2ccc(F)cc2)cc1 [Compound 210, N-(4-fluorophenyl)-N′-(4-propoxyphenyl)urea] | < 2000 nM
CC(C)Oc1cccc(NC(=O)Nc2cccc(F)c2)c1 [Compound 211, N-(3-fluorophenyl)-N′-(3-isopropoxyphenyl)urea] | < 2000 nM
CC(C)Oc1cccc(NC(=O)Nc2ccc(F)cc2)c1 [Compound 212, N-(4-fluorophenyl)-N′-(3-isopropoxyphenyl)urea] | < 2000 nM
Cc1cccc(NC(=O)Nc2ccc(OC(C)C)cc2)c1 [Compound 213, N-(4-isopropoxyphenyl)-N′-(3-methylphenyl)urea] | < 2000 nM
Cc1ccc(NC(=O)Nc2ccc(OC(C)C)cc2)cc1 [Compound 214, N-(4-isopropoxyphenyl)-N′-(4-methylphenyl)urea] | < 2000 nM
CC(C)Oc1ccc(NC(=O)Nc2cccc(F)c2)cc1 [Compound 215, N-(3-fluorophenyl)-N′-(4-isopropoxyphenyl)urea] | < 2000 nM
CC(C)Oc1ccc(NC(=O)Nc2ccc(F)cc2)cc1 [Compound 216, N-(4-fluorophenyl)-N′-(4-isopropoxyphenyl)urea] | < 2000 nM
Cc1cccc(NC(=O)Nc2cccc(OC(F)F)c2)c1 [Compound 217, N-[3-(difluoromethoxy)phenyl]-N′-(3-methylphenyl)urea] | < 2000 nM
Cc1ccc(NC(=O)Nc2cccc(OC(F)F)c2)cc1 [Compound 218, N-[3-(difluoromethoxy)phenyl]-N′-(4-methylphenyl)urea] | < 2000 nM
O=C(Nc1cccc(F)c1)Nc1cccc(OC(F)F)c1 [Compound 219, N-[3-(difluoromethoxy)phenyl]-N′-(3-fluorophenyl)urea] | < 2000 nM
O=C(Nc1ccc(F)cc1)Nc1cccc(OC(F)F)c1 [Compound 220, N-[3-(difluoromethoxy)phenyl]-N′-(4-fluorophenyl)urea] | < 2000 nM

Compound | IC50
O=C(Nc1ccc(F)cc1)Nc1ccc(OC(F)F)cc1 [Compound 221, N-[4-(difluoromethoxy)phenyl]-N′-(4-fluorophenyl)urea] | < 2000 nM
CCOc1cccc(NC(=O)Nc2ccccc2)c1 [Compound 222, N-(3-ethoxyphenyl)-N′-phenylurea] | < 2000 nM
CCOc1ccc(NC(=O)Nc2ccccc2)cc1 [Compound 223, N-(4-ethoxyphenyl)-N′-phenylurea] | < 2000 nM
CC(C)Oc1ccc(NC(=O)Nc2ccccc2)cc1 [Compound 224, N-(4-isopropoxyphenyl)-N′-phenylurea] | < 2000 nM
O=C(Nc1ccccc1)Nc1cccc(OC(F)F)c1 [Compound 225, N-[3-(difluoromethoxy)phenyl]-N′-phenylurea] | < 2000 nM
Cc1ccccc1NC(=O)Nc1cccc(OC(F)F)c1 [Compound 226] | < 2000 nM
CCc1ccccc1NC(=O)Nc1cccc(OC(F)F)c1 [Compound 227, N-[3-(difluoromethoxy)phenyl]-N′-(2-ethylphenyl)urea] | < 2000 nM
CCc1ccc(NC(=O)Nc2ccc(OC)cc2)cc1 [Compound 228, N-(4-ethylphenyl)-N′-(4-methoxyphenyl)urea] | < 2000 nM
COc1ccc(NC(=O)Nc2ccc(Cl)cc2)cc1 [Compound 229, N-(4-chlorophenyl)-N′-(4-methoxyphenyl)urea] | < 2000 nM
CCOc1cccc(NC(=O)Nc2cccc(CC)c2)c1 [Compound 230, N-(3-ethoxyphenyl)-N′-(3-ethylphenyl)urea] | < 2000 nM
CCOc1cccc(NC(=O)Nc2ccc(CC)cc2)c1 [Compound 231, N-(3-ethoxyphenyl)-N′-(4-ethylphenyl)urea] | < 2000 nM
CCOc1cccc(NC(=O)Nc2cccc(Cl)c2)c1 [Compound 232, N-(3-chlorophenyl)-N′-(3-ethoxyphenyl)urea] | < 2000 nM
CCOc1cccc(NC(=O)Nc2ccc(Cl)cc2)c1 [Compound 233, N-(4-chlorophenyl)-N′-(3-ethoxyphenyl)urea] | < 2000 nM
CCOc1ccc(NC(=O)Nc2cccc(CC)c2)cc1 [Compound 234, N-(4-ethoxyphenyl)-N′-(3-ethylphenyl)urea] | < 2000 nM
CCOc1ccc(NC(=O)Nc2ccc(CC)cc2)cc1 [Compound 235, N-(4-ethoxyphenyl)-N′-(4-ethylphenyl)urea] | < 2000 nM
CCOc1ccc(NC(=O)Nc2cccc(Cl)c2)cc1 [Compound 236, N-(3-chlorophenyl)-N′-(4-ethoxyphenyl)urea] | < 2000 nM
CCOc1ccc(NC(=O)Nc2ccc(Cl)cc2)cc1 [Compound 237, N-(4-chlorophenyl)-N′-(4-ethoxyphenyl)urea] | < 2000 nM
CCc1ccc(NC(=O)Nc2cccc(COC)c2)cc1 [Compound 238, N-(4-ethylphenyl)-N′-[3-(methoxymethyl)phenyl]urea] | < 2000 nM
CCc1cccc(NC(=O)Nc2ccc(COC)cc2)c1 [Compound 239, N-(3-ethylphenyl)-N′-[4-(methoxymethyl)phenyl]urea] | < 2000 nM
CCc1ccc(NC(=O)Nc2ccc(COC)cc2)cc1 [Compound 240, N-(4-ethylphenyl)-N′-[4-(methoxymethyl)phenyl]urea] | < 2000 nM
